Source: patent publication US20230285556A1, “METHODS AND COMPOSITIONS FOR TREATING CANCER” (Omeros Corporation, priority 2021, published 2023)
Values joined by “and” are separate entries in the source; they are usually repeats but may differ in a detail not shown here. Equal values may be shown once.

Key:
GPR174 [1] = molecular target: T1, GPR174 (Homo sapiens, UniProt Q9BXC1); experiment: CRA (EC50) of GPR174 inhibitor compounds, tested as described in US 20200276190; format: cell-based; details: multiple values = separate experiments
T1 sequence (Q9BXC1 whole entry): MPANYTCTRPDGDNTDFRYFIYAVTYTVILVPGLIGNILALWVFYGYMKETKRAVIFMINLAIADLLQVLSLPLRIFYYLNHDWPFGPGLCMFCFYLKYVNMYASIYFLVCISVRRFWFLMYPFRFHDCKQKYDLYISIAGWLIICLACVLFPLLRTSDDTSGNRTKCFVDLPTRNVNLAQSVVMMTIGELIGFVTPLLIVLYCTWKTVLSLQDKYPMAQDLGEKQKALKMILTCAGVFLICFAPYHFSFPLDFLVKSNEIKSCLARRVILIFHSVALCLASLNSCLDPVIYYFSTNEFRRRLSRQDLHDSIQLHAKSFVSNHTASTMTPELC
Protocol: (§1) Where present, multiple EC50 values correspond to values obtained in separate experiments. […] The activity of the compounds was tested as described in US 20200276190, the disclosure of which is incorporated herein by reference.

GPR174 [2] = molecular target: T1, GPR174; experiment: Human GPR174 CRE activity / Gs signaling; format: cell-based
Protocol: as §1

[3] = tested on: OT-I TCR transgenic CD8 T cells; experiment: Example 9: OT-I CD8 T cell 10-day expansion, immunophenotyping and IL-2 capacity; format: cell-based, mouse
[4] = tested on: OT-I TCR transgenic CD8 T cells; experiment: Example 8: OT-I CD8 T cell 9-day expansion with PKA, p38, PI3Kδ inhibitors, IL-2 after restimulation with EG7 cells; format: cell-based, mouse
Protocol: DMSO vehicle control • 2. 0.5 μM doramapimod • 3. 500 μM Rp-8-Br-cAMPS • 4. 0.5 μM doramapimod+500 μM Rp-8-Br-cAMPS • 5. 1 μM idelalisib • 6. 1 μM idelalisib+0.5 μM doramapimod • 7. 1 μM idelalisib+500 μM Rp-8-Br-cAMPS • 8. 1 μM idelalisib+0.5 μM doramapimod+500 μM Rp-8-Br-cAMPS
On days 2, 4, 6, and 8, cells were counted, washed and reseeded at 0.5 million per well in 2 mL media with the same 8 conditions and with recombinant mouse IL-2 and IL-7 (5 ng/mL each). […] Cells were also washed three times (12 mL media each), and restimulated in quintuplicate in 96-well round-bottom plates with the following conditions: • 0.1 mL RP10 media • 0.05 million OT-I T cells from each condition • 0.05 million EG7 cells
(§2) After overnight culture, supernatants were harvested and analyzed for IL-2 content (MesoScale Discovery).

human CD8 T cells [5] = experiment: Example 5: human CD8 T cell expansion with cAMP pathway and p38 inhibitors, IL-2 after restimulation; format: cell-based; details: 500 μM Rp-8-Br-cAMPS, 0.5 μM doramapimod; for IL-2 production following restimulation, fold above vehicle control (FIG. 8): 10 μM HJC-0197, 5 μM ESI-09
Protocol: (§3) DMSO vehicle control • 2. […] 500 μM Rp-8-Br-cAMPS • 4. […] 0.5 μM doramapimod • 6. Media control
(§4) or the following individual conditions for the experiment shown in FIG. 8, each ±0.5 μM doramapimod: • 1. DMSO vehicle control • 2. 500 μM Rp-8-Br-cAMPS • 3. […] 5 μM ESI-09
(§5) On days 3, 5, and 7, cultures were washed and seeded at 0.5 cells million per well with the same small molecule inhibitor conditions, and with IL-7 and IL-15. On day 10, cells were washed twice (12 mL media each), and restimulated in quadruplicate in 96-well round-bottom plates with the following conditions: • 0.1 mL X-VIVO™ 15 media (Lonza) • 0.05 million cells from each condition • 0.1 million Human T-Activator CD3/CD28 Dynabeads® (ThermoFisher)
as §2

human CD8 T cells [6] = experiment: Example 3: human CD8 T cell 10-day expansion with IL-7+IL-15 and inhibitors, IL-2 after restimulation; format: cell-based; details: 300 nM Compound #10, 500 nM Compound #49, 100 nM ZM-241385, 18 hours restimulation
Protocol: Purified human CD8 T cells were cultured in 24-well plates with the following conditions per well: • 2 mL X-VIVO™ 15 media (Lonza) • 1 million human CD8 T cells • 2 million Human T-Activator CD3/CD28 Dynabeads® (ThermoFisher) • 10 ng/mL human IL-7 (R&D Systems) • 10 ng/mL human IL-15 (R&D Systems)
and the following individual conditions for FIG. 4: • 1. DMSO vehicle control • 2. […] 300 nM GPR174 inhibitor Compound #10 • 4.
On days 4 and 7 (FIG. 4) or days 3, 5, and 7 (FIG. 5), cultures were washed and seeded at 0.5 cells million per well with the same GPR174 and A2A inhibitor conditions, and with 10 ng/mL IL-7 and 10 ng/mL IL-15.
After 18 hours of culture, supernatants were harvested and analyzed for IL-2 (MesoScale Discovery).

EG7 tumors = experiment: Example 7: adoptive transfer of inhibitor-precultured OT-1 T cells into EG7 tumor-bearing mice; format: in vivo, mouse
Protocol: (§6) and the following individual conditions: • 1. DMSO vehicle control • 2. 0.2 μM doramapimod • 3. 500 μM Rp-8-Br-cAMPS • 4. 0.2 μM doramapimod+500 μM Rp-8-Br-cAMPS
On day 6 cells were seeded in 6-well plates with […] per well, and on day 8 cells were seeded in T75 flasks in 30 mL media to obtain enough cells to transfer into EG7 tumor-bearing mice.
C57BL/6 female mice were implanted with 6 million EG7 tumor cells subcutaneously on day 4 of the OT-1 T cell expansion. On day 6 of tumor growth (day 10 of OT-1 T cell expansion) OT-1 T cells were washed and injected retro-orbitally into tumor bearing mice that had been sorted into 4 groups with equal tumor volume distributions (n=8). Via retroorbital injection, mice received 2 million OT1 T cells of each of the 4 culture conditions. Tumor volume (mm^3) was calculated as 0.5×(length×width^2), where length represents the largest tumor diameter and width represents the perpendicular tumor diameter. Mice were euthanized when the sum of the two measurements exceeded 30 mm.

[7] = tested on: OT-I TCR transgenic CD8 T cells; experiment: Example 6: OT-I CD8 T cell expansion with PKA and p38 inhibitors, IL-2 after restimulation with EG7 cells; format: cell-based, mouse; details: 0.2 μM doramapimod, 500 μM Rp-8-Br-cAMPS
Protocol: as §6
On day 8, cells were immunophenotyped with the following antibodies: anti-CD8 BV570, anti-CD62L eFluor450, anti-TCF1/TCF7 PE, anti-CD39 PerCP-eFluor710, anti-CD69 BV605, anti-PD-1 BV711, anti-CTLA-4 APC, and LIVE/DEAD™ Fixable Green Dead Cell Stain.
as §2

[8] = tested on: OT-I TCR transgenic CD8 T cells; experiment: Example 6: immunophenotyping of OT-I T cells on day 8; format: cell-based, mouse; details: 8 days of culture
Protocol: as §6
On days 2, 4, 6, and 8, cells were counted, washed, and reseeded at 0.5 million per well in 2 mL media with the same 4 doramapimod/Rp-8-Br-cAMPS conditions and with recombinant mouse IL-2 and IL-7 (5 ng/mL each). On day 8, cells were immunophenotyped with the following antibodies: anti-CD8 BV570, anti-CD62L eFluor450, anti-TCF1/TCF7 PE, anti-CD39 PerCP-eFluor710, anti-CD69 BV605, anti-PD-1 BV711, anti-CTLA-4 APC, and LIVE/DEAD™ Fixable Green Dead Cell Stain.

human CD8 T cells [9] = experiment: Example 5: T cell number increase during 10-day expansion; format: cell-based
Protocol: as §3, §4, §5

human CD8 T cells [10] = experiment: Example 4: human CD8 T cell expansion with GPR174, A2A, PKA or EPAC inhibitors, IL-2 after restimulation; format: cell-based; details: 300 nM Compound #10, 100 nM ZM-241385, 500 μM Rp-8-Br-cAMPS, 5 μM ESI-09; 5.5 hours restimulation
Protocol: Purified human CD8 T cells were cultured in 24-well plates with the following conditions per well: • 2 mL X-VIVO™ 15 media (Lonza) • 0.4 million human CD8 T cells (Donor A) • 2 million Human T-Activator CD3/CD28 Dynabeads® (ThermoFisher) • 10 ng/mL human IL-7 (R&D Systems) • 10 ng/mL human IL-15 (R&D Systems)
and the following individual conditions, ±300 nM Compound #10: • 1. DMSO vehicle control • 2. […] 500 μM Rp-8-Br-cAMPS • 4. 5 μM ESI-09
On days 3, 5, and 7, cultures were washed and seeded at 0.5 cells million per well with the same small molecule inhibitor conditions, and with IL-7 and IL-15.
After 5.5 hours of culture, supernatants were harvested and analyzed for IL-2 content (MesoScale Discovery).

[11] = Idelalisib (agent together with 1 μM idelalisib)

## CCCC(=O)c1ccc(N2CCN(S(=O)(=O)c3ccc(C)cc3)CC2)c(F)c1 [Compound 4]
GPR174 [1]
  EC50: 0.2 µM
GPR174 [2]
  Human GPR174 CRE Activity (type of modulation): Antagonist
  competition with the GPR174 agonist LysoPS: found to compete with the GPR174 agonist LysoPS

## S=C(NCc1ccco1)Nc1ccc(I)cc1 [Compound 59]
GPR174 [2]
  Human GPR174 CRE Activity (type of modulation): NM (“NM” refers to “non-modulator.”)

## CC[C@H](Nc1ncnc2[nH]cnc12)c1nc2cccc(F)c2c(=O)n1-c1ccccc1 [idelalisib]
[3]; Vehicle 10%
  TCF-1 positive cells: 27%
[3]; Vehicle 41%
  CTLA-4 positive cells: 28%
[3]; Vehicle 75%
  PD-1 positive cells: 75%
[3]; Vehicle 87%
  CD39 positive cells: 63%
[3]; Vehicle 88%
  TIM-3 positive cells: 60%
[3]; Vehicle 95%
  CD69 positive cells: 74%
[4]; [11]
  Fold-change in IL-2 production relative to Vehicle control: 24.0

## Cc1ccc(C)c(CSc2nc(C3CCCC3)c(C#N)c(=O)[nH]2)c1 [HJC-0197]
Human CD8 T cells [5]
  IL-2 production following restimulation, fold above vehicle control (FIG. 8): absent or negligible

## CCOC(=O)N1CCN(c2cc(N3CCC(C)CC3)c(F)cc2[N+](=O)[O-])CC1 [Compound 1]
GPR174 [1]
  EC50: 1.5 µM and 0.9 µM

## Cc1ccc(-c2nnc(Nc3ccccc3)c3ccccc23)cc1S(N)(=O)=O [Compound 19]
GPR174 [2]
  Human GPR174 CRE Activity (type of modulation): Antagonist or allosteric modulator

## O=C(c1ccccc1)N1CCN(c2cc(N3CCCCC3)c(F)cc2[N+](=O)[O-])CC1 [Compound 6]
GPR174 [1]
  EC50: 1.4 µM

## Cc1cc(C(=O)N/N=C/c2cc(Br)ccc2O)c(C)o1 [Compound 58]
GPR174 [2]
  Human GPR174 CRE Activity (type of modulation): Antagonist or allosteric modulator

## CC(C)Oc1ccc(C2C3=C(CCCC3=O)NC3=C2C(=O)c2ccccc23)cc1 (centres unmarked) [Compound 49]
Human CD8 T cells [6]
  IL-2 production following restimulation, fold vs vehicle (FIG. 5): 1.9 fold

## O=C(N/N=C/c1cc(Cl)ccc1O)c1ccncc1 [Compound 57]
GPR174 [2]
  Human GPR174 CRE Activity (type of modulation): Antagonist or allosteric modulator

## Cc1ccc(-n2nc(C(C)(C)C)cc2NC(=O)Nc2ccc(OCCN3CCOCC3)c3ccccc23)cc1 [doramapimod]
Human CD8 T cells [5]
  IL-2 production following restimulation, fold above vehicle control (FIG. 8): 1.8 fold
Human CD8 T cells [5]; GPR174+A2A inhibitors, overnight restimulation
  IL-2 production following restimulation, fold vs vehicle (FIG. 7): 3.2 fold
EG7 tumors; 2 million OT-1 T cells expanded 10 days with 0.2 μM doramapimod and/or 500 μM Rp-8-Br-cAMPS, retro-orbital, relative to vehicle control cells
  tumor growth / tumor volume after transfer of precultured OT-1 T cells: significantly halted and delayed tumor growth
EG7 tumors; OT-1 T cells precultured with inhibitor(s), relative to vehicle group
  survival of tumor-bearing mice: intermediate survival times
[7]; day 8 restimulation with EG7 cells
  IL-2 production from 8-day OT-I cultures, fold vs vehicle control: 4.9 fold
[7]; day 10 restimulation with EG7 cells
  IL-2 production from 10-day OT-I cultures, fold over vehicle control: 6.8 fold
[4]; [11]
  Fold-change in IL-2 production relative to Vehicle control: 65.0
[4]; column Vehicle (without idelalisib), 0.5 μM doramapimod, 500 μM Rp-8-Br-cAMPS
  Fold-change in IL-2 production relative to Vehicle control: 2.2
[8]
  increase in cells expressing both CD62L and TCF1/TCF7 relative to vehicle control: smaller increases
[8]; vehicle 22%
  percentage of OT-I T cells expressing both CD39 and CD69: smaller reductions
Human CD8 T cells [9]
  T cell growth during the 10-day culture relative to vehicle-treated cells (FIG. 8): very little effect on cell growth
Human CD8 T cells [9]; vehicle and media controls approximately 50-fold
  fold-increase in T cell number during the 10-day expansion (FIG. 7): approximately 50 fold

## CCOc1ccc(C2C3=C(CCCC3=O)NC3=C2C(=O)c2ccccc23)cc1 (centres unmarked) [Compound 23]
GPR174 [1]
  EC50: 2.9 µM

## CC(=O)N1CCN(c2cc(N3CCCCC3)c(F)cc2[N+](=O)[O-])CC1 [Compound 2]
GPR174 [1]
  EC50: 3.3 µM and 3 µM and 5.1 µM

## CC(=O)c1ccc(N2CCN(C(=O)c3ccc(F)cc3)CC2)c(F)c1 [Compound 3]
GPR174 [1]
  EC50: 4.1 µM
GPR174 [2]
  Human GPR174 CRE Activity (type of modulation): Antagonist or allosteric modulator

## Cc1cc(Cc2ccc(NC(=O)c3cccs3)c(C)c2)ccc1NC(=O)c1cccs1 [Compound 21]
GPR174 [1]
  EC50: 2.7 µM
GPR174 [2]
  Human GPR174 CRE Activity (type of modulation): Antagonist or allosteric modulator

## CC(C)(C)c1cc(C(=O)/C(C#N)=N/Nc2cccc(Cl)c2)no1 [ESI-09]
Human CD8 T cells [5]
  IL-2 production following restimulation, fold above vehicle control (FIG. 8): absent or negligible
Human CD8 T cells [10]
  IL-2 production following restimulation, fold increase vs vehicle (FIG. 6): no impact on IL-2 production
Human CD8 T cells [9]
  T cell growth during the 10-day culture relative to vehicle-treated cells (FIG. 8): attenuated T cell expansion

## Cc1ccccc1Nc1nnc(-c2ccc(C)c(S(N)(=O)=O)c2)c2ccccc12 [Compound 20]
GPR174 [1]
  EC50: 5 µM
GPR174 [2]
  Human GPR174 CRE Activity (type of modulation): Antagonist or allosteric modulator
